Measurements taken from US20210352900A1, “Method for Controlling PPO Resistant Weeds” (BASF SE, priority 2016, published 2021).

What was measured:
[1] = system: Amaranthus tamariscinus (AMATA, common waterhemp), sensitive biotype (w.1); assay: Greenhouse herbicidal activity test, sensitive common waterhemp (w.1); type: in vivo; settings: for Weed control (%) w.1: sensitive biotype, scale 0 (no damage) to 100 (complete destruction)
[2] = system: Amaranthus tamariscinus (AMATA, common waterhemp), PPO resistant biotype 1 (w.2); assay: Greenhouse herbicidal activity test, PPO resistant common waterhemp biotype 1 (w.2); type: in vivo; settings: for activity on / control of resistant weeds (w.2), in words: azafenidin: in comparison to sensitive biotypes; for Weed control (%) w.2: PPO resistant biotype 1, scale 0 to 100

Row | Compound | Weed control (%) w.1 ([1]; use rate 2 g/ha) [%] | Weed control (%) w.1 ([1]; use rate 4 g/ha) [%] | activity on / control of resistant weeds (w.2), in words [2] | Weed control (%) w.2 ([2]; use rate 2 g/ha) [%] | Weed control (%) w.2 ([2]; use rate 4 g/ha) [%] | activity on sensitive weeds (w.1), in words [1]
1 | C#CCOc1cc(-n2nc3n(c2=O)CCCC3)c(Cl)cc1Cl [azafenidin, reference compound] | 95 | 98 | much weaker control | 67 | 73 | –
2 | CCc1ccc(COc2ccc(-n3c(=O)cc(C(F)(F)F)n(C)c3=O)cc2)c(OC(C)C(=O)OC)c1 (centres unmarked) [(I).1, benzfendizone] | 94 | 100 | very good activity | 89 | 92 | very good activity
